Among the data in ChEMBL document CHEMBL1149662, “Design and synthesis of a library of tertiary amides: evaluation as mimetics of the melanocortins' active core” (Bioorg Med Chem, 2007) are Ki values, retold here.

One test concerns the target Melanocortin receptor 5 (Homo sapiens, UniProt P33032). In words: Displacement of [125I]NDP-MSH from human recombinant MC5 receptor expressed in Sf9 cells. On the technique in general: Loss of bound radioactivity is the signal in a displacement assay; it reports binding, not function.
In a further test the target is Melanocortin receptor 4 (Homo sapiens, UniProt P32245). In words: Displacement of [125I]NDP-MSH from human recombinant MC4 receptor expressed in Sf9 cells.
Test [1] has as its target Melanocyte-stimulating hormone receptor (Mus musculus, UniProt Q01727). In words: Displacement of [125I]NDP-MSH from MC1 receptor in mouse B16 cells. Type of test: cell-based.
The next test addresses Melanocortin receptor 3 (Homo sapiens, UniProt P41968). In words: Displacement of [125I]NDP-MSH from human recombinant MC3 receptor expressed in Sf9 cells.

Melanocyte-stimulating hormone receptor, sequence (Q01727 whole entry): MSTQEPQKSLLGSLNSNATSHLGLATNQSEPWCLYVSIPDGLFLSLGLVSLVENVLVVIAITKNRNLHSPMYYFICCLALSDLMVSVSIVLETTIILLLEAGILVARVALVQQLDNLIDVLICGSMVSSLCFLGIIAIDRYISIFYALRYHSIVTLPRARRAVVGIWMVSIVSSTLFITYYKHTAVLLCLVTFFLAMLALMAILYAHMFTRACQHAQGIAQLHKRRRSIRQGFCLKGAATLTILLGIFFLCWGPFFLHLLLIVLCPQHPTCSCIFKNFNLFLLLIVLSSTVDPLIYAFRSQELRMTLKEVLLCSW
Melanocortin receptor 3, sequence (P41968 whole entry): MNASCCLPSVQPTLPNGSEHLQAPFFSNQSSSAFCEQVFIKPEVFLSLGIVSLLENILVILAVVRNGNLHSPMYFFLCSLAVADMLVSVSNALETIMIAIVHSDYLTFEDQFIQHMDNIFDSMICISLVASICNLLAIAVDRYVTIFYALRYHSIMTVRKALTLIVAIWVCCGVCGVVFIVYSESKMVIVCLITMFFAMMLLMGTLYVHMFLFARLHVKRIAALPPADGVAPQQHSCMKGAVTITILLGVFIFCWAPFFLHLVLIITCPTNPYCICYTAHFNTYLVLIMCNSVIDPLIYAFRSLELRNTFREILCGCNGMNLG
Melanocortin receptor 5, sequence (P33032 whole entry): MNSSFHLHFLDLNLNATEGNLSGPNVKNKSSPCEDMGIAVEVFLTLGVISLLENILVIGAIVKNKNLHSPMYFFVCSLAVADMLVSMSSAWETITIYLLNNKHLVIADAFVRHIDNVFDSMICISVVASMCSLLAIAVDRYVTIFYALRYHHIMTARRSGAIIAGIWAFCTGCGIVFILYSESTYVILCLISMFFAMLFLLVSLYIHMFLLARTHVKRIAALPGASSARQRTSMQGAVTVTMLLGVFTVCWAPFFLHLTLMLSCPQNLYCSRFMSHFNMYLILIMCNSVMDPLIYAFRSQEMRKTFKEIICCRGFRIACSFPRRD
Melanocortin receptor 4, sequence (P32245 whole entry): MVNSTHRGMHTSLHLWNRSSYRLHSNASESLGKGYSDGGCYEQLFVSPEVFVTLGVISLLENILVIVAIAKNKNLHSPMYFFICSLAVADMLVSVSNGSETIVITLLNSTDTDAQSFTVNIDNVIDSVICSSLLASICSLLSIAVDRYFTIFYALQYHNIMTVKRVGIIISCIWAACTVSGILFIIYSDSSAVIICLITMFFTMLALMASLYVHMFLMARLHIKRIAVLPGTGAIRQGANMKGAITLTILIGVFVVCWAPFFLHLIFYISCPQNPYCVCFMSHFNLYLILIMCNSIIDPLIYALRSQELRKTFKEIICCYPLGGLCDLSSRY

As for `NCCCCCCN(Cc1ccccc1)C(=O)CCCc1c(Cc2ccc(O)cc2)[nH]c2ccccc12`, the Ki (in general, the equilibrium dissociation constant of an inhibitor or competing ligand from its target) on Melanocortin receptor 5 was determined as 2.1 µM; on Melanocortin receptor 4, 3.7 µM; in test [1], 2.3 µM; at Melanocortin receptor 3, 36 µM.

For `N=C(N)NCCCCN(Cc1ccc2ccccc2c1)C(=O)CCCc1c[nH]c2ccccc12`, the Ki on Melanocortin receptor 5 is 11 µM; on Melanocortin receptor 4, 96 µM; in test [1], 3.2 µM; on Melanocortin receptor 3, 134 µM.

Turning to `NCCCCCN(Cc1ccccc1)C(=O)[C@H](N)Cc1c[nH]c2ccccc12`, the Ki at Melanocortin receptor 5 came out at 159 µM; on Melanocortin receptor 4, 87 µM; in test [1], 32 µM; on Melanocortin receptor 3 it was 106 µM.

For `COc1ccc2c(c1)c(CC(=O)N(CCCCN)C/C(C)=C/c1ccccc1)c(C)n2C(=O)c1ccc(Cl)cc1`, the Ki was 56 µM on Melanocortin receptor 5, 7.1 µM at Melanocortin receptor 4, 1.8 µM in test [1] and 30 µM on Melanocortin receptor 3.

As for `NCCCN(C/C=C/c1ccccc1)C(=O)C(=O)c1c[nH]c2ccccc12`, the Ki at Melanocortin receptor 5 turned out to be 4.9 µM; at Melanocortin receptor 4, 5 µM; in test [1], 1.6 µM; on Melanocortin receptor 3, 17 µM.

Turning to `COc1cc(O)ccc1/C=C/CN(C(=O)CCCc1c[nH]c2ccccc12)C1CCC(CC2CCC(N)CC2)CC1` (stereo in doubt; form 2), the Ki on Melanocortin receptor 5 turned out to be 11 µM; at Melanocortin receptor 4, 8 µM; in test [1], 3.3 µM; on Melanocortin receptor 3 it was 51 µM.

As to `Cc1ccccc1CN(C(=O)CCCc1c[nH]c2ccccc12)C1CCC(CC2CCC(N)CC2)CC1` (stereo not given), the Ki at Melanocortin receptor 5 was 15 µM; at Melanocortin receptor 4, 2.3 µM; in test [1], 1.2 µM; at Melanocortin receptor 3, 121 µM.

For `NCCN(C(=O)[C@H](N)Cc1ccc(Cl)cc1)C1CCC2(CCCCC2)CC1`, the Ki at Melanocortin receptor 5 was found to be 3.2 µM; on Melanocortin receptor 4, 2.4 µM; in test [1], 3.7 µM; at Melanocortin receptor 3 it was 1.7 µM.

For `COc1ccccc1/C=C/CN(C(=O)CCCc1c[nH]c2ccccc12)C1CCC(CC2CCC(N)CC2)CC1` (stereo in doubt; form 1), the Ki on Melanocortin receptor 5 was 7.5 µM; on Melanocortin receptor 4, 4.9 µM; in test [1], 1.5 µM; on Melanocortin receptor 3 it was 17 µM.

Regarding `NC1CCC(CC2CCC(N(Cc3ccncc3)C(=O)CCCc3c[nH]c4ccccc34)CC2)CC1` (stereo in doubt; form 2), the Ki on Melanocortin receptor 5 came out at 96 µM; at Melanocortin receptor 4, 5.6 µM; in test [1], 6.3 µM; on Melanocortin receptor 3 it was 172 µM.

Consider `NCCCCCN(C(=O)COc1ccc2ccccc2c1)C1CCC2(CC=CCC2)CC1` (stereo not given), for which the Ki on Melanocortin receptor 5 was 8 µM; on Melanocortin receptor 4 it was 5.9 µM; in test [1], 7.4 µM; on Melanocortin receptor 3, 3.7 µM.

Turning to `NCCCCCN(Cc1ccccc1)C(=O)[C@@H](N)Cc1ccc2ccccc2c1`, the inhibitory constant (Ki) is 34 µM on Melanocortin receptor 5, 21 µM on Melanocortin receptor 4, 10 µM in test [1] and 39 µM on Melanocortin receptor 3.

For `COc1cc(Br)c(CN(C(=O)CCCc2c[nH]c3ccccc23)[C@H]2CC[C@@H](C[C@H]3CC[C@@H](N)CC3)CC2)cc1OC`, the Ki at Melanocortin receptor 5 stood at 6.9 µM; on Melanocortin receptor 4, 7.8 µM; in test [1], 2.3 µM; at Melanocortin receptor 3, 8.1 µM.

In the case of `N[C@H]1CC[C@H](C[C@H]2CC[C@H](N(C/C(Cl)=C/c3ccccc3)C(=O)CCCc3c[nH]c4ccccc34)CC2)CC1`, the Ki at Melanocortin receptor 5 turned out to be 8.4 µM; on Melanocortin receptor 4 it was 6.8 µM; in test [1] it was 3.1 µM; at Melanocortin receptor 3, 45 µM.

Consider `NCCCN(C/C=C/c1ccccc1)C(=O)CCc1c[nH]c2ccccc12`, for which the Ki on Melanocortin receptor 5 was found to be 11 µM; on Melanocortin receptor 4 it was 81 µM; in test [1], 21 µM; at Melanocortin receptor 3, 65 µM.

As to `NC1CCC(CC2CCC(N(C/C=C/c3ccccc3)C(=O)CCCc3c[nH]c4ccccc34)CC2)CC1` (stereo not given), the Ki was 7.7 µM on Melanocortin receptor 5, 9.2 µM on Melanocortin receptor 4, 2.7 µM in test [1] and 16 µM at Melanocortin receptor 3.

Regarding `NCCCCCN(Cc1ccccc1)C(=O)[C@H](N)Cc1ccc2ccccc2c1`, the Ki is 24 µM at Melanocortin receptor 5, 13 µM on Melanocortin receptor 4, 5 µM in test [1] and 41 µM on Melanocortin receptor 3.

On to `NCCCN(C/C=C/c1ccccc1)C(=O)Cc1ccc2ccccc2c1`, for which the Ki stood at 10 µM at Melanocortin receptor 5, 6.4 µM at Melanocortin receptor 4, 2.5 µM in test [1] and 33 µM on Melanocortin receptor 3.

For `N=C(N)NC1CCC(CC2CCC(N(C/C(Cl)=C/c3ccccc3)C(=O)CCCc3c[nH]c4ccccc34)CC2)CC1` (stereo in doubt; form 1), the Ki was 24 µM on Melanocortin receptor 5, 4 µM on Melanocortin receptor 4, 5.4 µM in test [1] and 9.6 µM at Melanocortin receptor 3.

Consider `NC1CCC(CC2CCC(N(Cc3ccccc3F)C(=O)CCCc3c[nH]c4ccccc34)CC2)CC1` (stereo not given), for which the inhibition constant Ki on Melanocortin receptor 5 is 7.2 µM; at Melanocortin receptor 4 it was 3.7 µM; in test [1], 2.4 µM; at Melanocortin receptor 3, 20 µM.

On to `NCCCCCN(Cc1ccccc1)C(=O)CCCc1c[nH]c2ccccc12`, for which the Ki was 4.6 µM on Melanocortin receptor 5, 6.4 µM at Melanocortin receptor 4, 3.2 µM in test [1] and 15 µM on Melanocortin receptor 3.

On to `NC1CCC(CC2CCC(N(C(=O)CCCc3c[nH]c4ccccc34)C3CCc4ccccc4C3)CC2)CC1` (stereo not given), for which the Ki amounted to 44 µM on Melanocortin receptor 5, 12 µM at Melanocortin receptor 4, 4.5 µM in test [1] and 278 µM on Melanocortin receptor 3.

On to `NCCCCN(Cc1ccc2ccccc2c1)C(=O)c1c[nH]c2ccccc12`, for which the Ki stood at 18 µM on Melanocortin receptor 5, 6.4 µM at Melanocortin receptor 4, 1.7 µM in test [1] and 19 µM on Melanocortin receptor 3.

For `NC1CCC(CC2CCC(N(Cc3ccccc3Br)C(=O)CCCc3c[nH]c4ccccc34)CC2)CC1` (stereo not given), the Ki at Melanocortin receptor 5 is 9.1 µM; at Melanocortin receptor 4, 4.4 µM; in test [1], 3.6 µM; at Melanocortin receptor 3, 80 µM.

As to `COc1cc(Br)c(CN(C(=O)CCCc2c(Cc3ccc(O)cc3)[nH]c3ccccc23)[C@H]2CC[C@@H](C[C@H]3CC[C@H](N)CC3)CC2)cc1OC`, the Ki turned out to be 9.1 µM at Melanocortin receptor 5, 7.4 µM at Melanocortin receptor 4, 2.9 µM in test [1] and 5.4 µM at Melanocortin receptor 3.

Take `CCCCCN(Cc1ccc(N(CC)CC)cc1)C(=O)CCCc1c[nH]c2ccccc12`: the Ki at Melanocortin receptor 5 stood at 408 µM; on Melanocortin receptor 4, 78 µM; in test [1] it was 72 µM; on Melanocortin receptor 3, 289 µM.

`N=C(N)NC1CCC(CC2CCC(N(Cc3ccccc3)C(=O)CCCc3c[nH]c4ccccc34)CC2)CC1` (stereo not given): the Ki was 2.6 µM on Melanocortin receptor 5, 3.4 µM at Melanocortin receptor 4, 1.5 µM in test [1] and 19 µM on Melanocortin receptor 3.

As to `NCCN(C(=O)Cc1c[nH]c2ccccc12)C1CCc2ccccc2C1` (stereo not given), the Ki on Melanocortin receptor 5 came to 29 µM; on Melanocortin receptor 4, 42 µM; in test [1] it was 4 µM; on Melanocortin receptor 3, 16 µM.

As to `CC1CC(CC2CCC(N(Cc3ccccc3)C(=O)CCCc3c[nH]c4ccccc34)C(C)C2)CCC1N` (stereo in doubt; form 2), the Ki at Melanocortin receptor 5 came out at 4.8 µM; at Melanocortin receptor 4, 3.2 µM; in test [1] it was 0.87 µM; on Melanocortin receptor 3 it was 22 µM.

`COc1cc(Cl)c(CN(C(=O)CCCc2c[nH]c3ccccc23)C2CCC(CC3CCC(N)CC3)CC2)cc1OC` (stereo in doubt; form 1): the Ki is 4.3 µM at Melanocortin receptor 5, 2.3 µM on Melanocortin receptor 4, 2.1 µM in test [1] and 24 µM at Melanocortin receptor 3.

`NCC1CCC(CN(Cc2ccccc2)C(=O)CCCc2c[nH]c3ccccc23)CC1` (stereo not given): the Ki at Melanocortin receptor 5 was 18 µM; at Melanocortin receptor 4, 4.4 µM; in test [1], 2.5 µM; on Melanocortin receptor 3 it was 27 µM.

In the case of `NC1CCC(CC2CCC(N(C/C(Cl)=C/c3ccccc3)C(=O)COc3ccc4ccccc4c3)CC2)CC1` (stereo in doubt; form 5), the Ki is 6.7 µM on Melanocortin receptor 5, 3.5 µM at Melanocortin receptor 4, 1.9 µM in test [1] and 22 µM on Melanocortin receptor 3.

Take `NC1CCCC(NC(=O)NC2CCCC(N(Cc3ccccc3)C(=O)CCCc3c(Cc4ccc(O)cc4)[nH]c4ccccc34)C2)C1` (stereo not given): the Ki turned out to be 23 µM on Melanocortin receptor 5, 6.5 µM on Melanocortin receptor 4, 2.9 µM in test [1] and 25 µM on Melanocortin receptor 3.

As for `CC1CC(CC2CCC(N(Cc3ccccc3)C(=O)CCCc3c[nH]c4ccccc34)C(C)C2)CCC1N` (stereo in doubt; form 1), the Ki on Melanocortin receptor 5 came to 1.7 µM; at Melanocortin receptor 4, 1.2 µM; in test [1], 0.69 µM; at Melanocortin receptor 3 it was 4.3 µM.

On to `NCCCCCN(Cc1ccc2c(c1)OCO2)C(=O)CCCc1c[nH]c2ccccc12`, for which the Ki on Melanocortin receptor 5 is 23 µM; on Melanocortin receptor 4 it was 12 µM; in test [1], 5.5 µM; at Melanocortin receptor 3, 38 µM.

For `N#Cc1ccc(CN(C(=O)CCCc2c[nH]c3ccccc23)C2CCC(CC3CCC(N)CC3)CC2)cc1` (stereo in doubt; form 2), the Ki amounted to 3.9 µM at Melanocortin receptor 5, 1.6 µM at Melanocortin receptor 4, 1.5 µM in test [1] and 20 µM at Melanocortin receptor 3.

On to `N=C(N)NC1CCC(CC2CCC(N(C/C(Cl)=C/c3ccccc3)C(=O)CCCc3c[nH]c4ccccc34)CC2)CC1` (stereo in doubt; form 2), for which the Ki was determined as 27 µM on Melanocortin receptor 5, 3.4 µM on Melanocortin receptor 4, 2.7 µM in test [1] and 13 µM at Melanocortin receptor 3.

For `CSc1ccc(CN(C(=O)CCCc2c[nH]c3ccccc23)C2CCC(CC3CCC(N)CC3)CC2)cc1` (stereo not given), the Ki at Melanocortin receptor 5 amounted to 85 µM; on Melanocortin receptor 4, 4.3 µM; in test [1], 3.2 µM; at Melanocortin receptor 3, 249 µM.

As for `NCCCN(C/C=C/c1ccccc1)C(=O)c1c[nH]c2ccccc12`, the Ki turned out to be 12 µM at Melanocortin receptor 5, 23 µM on Melanocortin receptor 4, 17 µM in test [1] and 172 µM on Melanocortin receptor 3.

On to `NCCCN(C(=O)/C=C/c1c[nH]c2ccccc12)C1CCc2ccccc2C1` (stereo not given), for which the Ki amounted to 12 µM at Melanocortin receptor 5, 11 µM at Melanocortin receptor 4, 6 µM in test [1] and 48 µM on Melanocortin receptor 3.
